The subject of test [1] is KRAS p.G12C models. To be noted: preclinical KRAS p.G12C models; cited from earlier work.
The subject of test [2] is KRAS p.G12C tumors. Put plainly: AMG 510 treatment in immune-competent mice. Format: in vivo.
In test [3] the test system is KRAS p.G12C tumors. The test can be described thus: Preclinical anti-tumor efficacy of AMG 510. In kind it is in vivo.

Take `C=CC(=O)N1CCN(c2ncnc3c(F)c(-c4c(O)cccc4F)c(Cl)cc23)CC1` [ARS-1620]: the in vivo efficacy entry in test [1] was “demonstrates in vivo efficacy”. Take `C=CC(=O)N1CCN(c2nc(=O)n(-c3c(C)ccnc3C(C)C)c3nc(-c4c(O)cccc4F)c(F)cc23)[C@@H](C)C1` [Compound A, 4-((S)-4-acryloyl-2-methylpiperazin-1-yl)-6-fluoro-7-(2-fluoro-6-hydroxyphenyl)-1-(2-isopropyl-4-methylpyridin-3-yl)pyrido[2,3-d]pyrimidin-2(1H)-one]: in test [2], the “outcome in combination with immune checkpoint inhibition” value is listed as “durable cures”. Further, the “anti-tumor efficacy of chemotherapy and targeted agents in combination” value in test [3] was “significantly improved”.

Source of the values: patent US20240139193A1, “COMBINATION THERAPY OF KRAS INHIBITOR AND SHP2 INHIBITOR FOR TREATMENT OF CANCERS” (AMGEN INC., priority 2019, published 2024).
